Measurements from patent US8916605B2, “Compounds and methods for treating cancer and viral infections” (priority 2009, dated 2014).

What was measured:
[1] = tested on: SH-SY5Y neuroblastoma cells; assay: Long term exposure, tetrazole reduction (CIMA) proliferation assay (Example 6); format: cell-based; conditions: for AVERAGE (mean absorbance): SHSY5Y
Method: (§1) Compound I(a) was termed CMPD A (LI568-026-02).
(§2) Cells were passaged as required by trypsinization.
(§3) Assay conditions: The effects of the test compound were assessed under long term exposure conditions. Cells were propagated as normal in T25 flasks in complete culture media supplemented with comparatively low concentrations of the compound (0, 1 and 5 μg/ml) for 28 days. At various times post-exposure, changes in proliferation rates were assessed using a standard CIMA assay.
(§4) For the current study, cells that have been exposed to the compound were seeded in 96-well plates and proliferation rates measured over 24 and 72 h periods for comparison to that of similarly aged untreated cells.

U373 astroglioma cells [2] = assay: as above; format: cell-based
Method: as §1, §2, §3, §4

[3] = tested on: Influenza A (strain A/PR/8/34); assay: Anti-influenza cytopathic effect (CPE) assay in MDCK cells, prophylactic regimen (Example 7); format: cell-based; design: key to CPE score: 1: Complete monolayer with few gaps or dead cells; 2: Some gaps in the monolayer; dead cells more evident; 3: Increasing number of gaps in the monolayer concurrent with dead cells; 4: Gaps widely distributed throughout the monolayer and of increasing size; 5: Large holes forming as smaller gaps merge; copious dead cells evident; 6: Monolayer integrity lost. Small islands of attached cells amid predominantly dead cells; conditions: for CPE score: Influenza A, MDCK
[4] = tested on: Influenza B (strain B/Lee/40); assay: as above; format: cell-based; design: key to CPE score: 1: Complete monolayer with few gaps or dead cells; 2: Some gaps in the monolayer; dead cells more evident; 3: Increasing number of gaps in the monolayer concurrent with dead cells; 4: Gaps widely distributed throughout the monolayer and of increasing size; 5: Large holes forming as smaller gaps merge; copious dead cells evident; 6: Monolayer integrity lost. Small islands of attached cells amid predominantly dead cells; conditions: for CPE score: Influenza B, MDCK, virus + DMSO control 4
NSC34 motor neurons = assay: MTT (CIMA) cell proliferation assay (Example 4); conditions: 72 h post-treatment
Method: (§5) Compound preparation: Stock solutions of test compounds were prepared in dimethylsulfoxide (DMSO) at 250 mg/ml. Working concentrations of 10 mg/ml were subsequently prepared from the stock solution and stored in 50 μl aliquots at −20° C. until used.
(§6) Cells and cell culture: Three classes of cells were evaluated: 1) neuroblastoma cells, 2) neuroglioma cells, and 3) non-transformed human neurons (see below). All cells were maintained in appropriate culture medium supplemented with 10% fetal calf serum (FCS) and antibiotics in a humidified, 5% CO2 environment. Cells were passaged as required by trypsinization.
(§7) Assay conditions: The effects of the test compounds were assessed following acute and chronic exposure conditions. […] Each compound was evaluated over a broad range of concentrations (0, 0.5, 1, 5, 10, 50, 100 and 250 μg/ml) with cells treated with equivalent concentrations of vehicle (DMSO) serving as controls.
(§8) Cell proliferation assay: Cell proliferation was assessed using a standard colorimetric indicator of metabolic activity (CIMA) assay. In this assay, the reduction of yellow tetrazolium salt (MTT) to purple formazan by mitochondrial reductase enzymes in viable cells was evaluated as a measure of metabolic activity to determine the extent of cell proliferation within a culture. […]

[5] = tested on: all three transformed neuronal cell lines (IMR32, NG108, NSC34); assay: MTT (CIMA) cell proliferation assay (Example 4); conditions: 72 h post-treatment; 0.5-250 μg/ml
Method: as §5, §6, §7, §8

MDCK cells = assay: Cytotoxicity assay (MTT/CIMA) in MDCK cells (Example 7)
U373 astroglioma cells [6] = assay: MTT (CIMA) cell proliferation assay, acute and chronic exposure (Example 3)
Method: as §5
(§9) Cells and cell culture: Proof-of-principle studies in this example focused on two human brain cancer cell lines, namely SH-SY5Y neuroblastoma cells and U373 astroglioma cells. […] Both cells were maintained in (50:50) F12:DMEM medium supplemented with 10% fetal calf serum (FCS) and antibiotics in a humidified, 5% CO2 environment. Cells were passaged as required by trypsinization.
(§10) Assays conditions: The effects of the test compounds were assessed following acute and chronic exposure conditions. […] The test compounds were evaluated over a broad range of concentrations (0, 0.5, 1, 5, 10, 50, 100 and 250 μg/ml) with cells treated with equivalent concentrations of vehicle (DMSO) serving as controls.
(§11) Cell proliferation assay: Cell proliferation was assessed using a standard colorimetric indicator of metabolic activity (CIMA) assay. In this assay, the reduction of yellow tetrazolium salt (MTT) to purple formazan by mitochondrial reductase enzymes in viable cells was evaluated as a measure of metabolic activity to determine the extent of cell proliferation within a culture. The resulting colour change that conferred a change in absorbance was quantified using a spectrophotometer (λ=500-600). Samples were diluted as required to ensure that values obtained with the MTT assay fell within the linear range of the protocol. Qualitative microscopic evaluation of treated cultures was used to determine if overt cytotoxicity was present and to supplement the quantitative CIMA data.

[7] = tested on: SH-SY5Y neuroblastoma cells; assay: as above; conditions: SH-SY5Y
Method: as §5, §9, §10, §11

[8] = both acute and chronic regimens

Structure (SMILES): O=CCCCN1C(=O)c2ccccc2C1=O [Compound I(a), 4-(1,3-dioxo-1,3-dihydro-2H-isoindol-2-yl)butanal]
- average decrease in activity ([1]; SH-SY5Y, long term exposure up to 28 days, 1 and 5 μg/ml): approximately 20%
- AVERAGE (mean absorbance) ([1]; 14 d incubation with 1 μg/ml, 24 h, control 0 μg/ml 0.492): 0.508
- AVERAGE (mean absorbance) ([1]; 14 d incubation with 5 μg/ml, 24 h, control 0 μg/ml 0.492): 0.388
- AVERAGE (mean absorbance) ([1]; 21 d incubation with 1 μg/ml, 24 h, control 0 μg/ml 0.307): 0.311
- AVERAGE (mean absorbance) ([1]; 21 d incubation with 1 μg/ml, 72 h, control 0 μg/ml 0.300): 0.268
- AVERAGE (mean absorbance) ([1]; 21 d incubation with 5 μg/ml, 24 h, control 0 μg/ml 0.307): 0.277
- AVERAGE (mean absorbance) ([1]; 21 d incubation with 5 μg/ml, 72 h, control 0 μg/ml 0.300): 0.269
- AVERAGE (mean absorbance) ([1]; 28 d incubation with 1 μg/ml, 24 h, control 0 μg/ml 0.601): 0.597
- AVERAGE (mean absorbance) ([1]; 28 d incubation with 1 μg/ml, 72 h, control 0 μg/ml 0.489): 0.389
- AVERAGE (mean absorbance) ([1]; 28 d incubation with 5 μg/ml, 24 h, control 0 μg/ml 0.601): 0.531
- AVERAGE (mean absorbance) ([1]; 28 d incubation with 5 μg/ml, 72 h, control 0 μg/ml 0.489): 0.423
- AVERAGE (mean absorbance) (U373 astroglioma cells [2]; 14 d incubation with 1 μg/ml, 24 h, control 0 μg/ml 0.569): 0.446
- AVERAGE (mean absorbance) (U373 astroglioma cells [2]; 14 d incubation with 5 μg/ml, 24 h, control 0 μg/ml 0.569): 0.437
- AVERAGE (mean absorbance) (U373 astroglioma cells [2]; 21 d incubation with 1 μg/ml, 24 h, control 0 μg/ml 0.617): 0.575
- AVERAGE (mean absorbance) (U373 astroglioma cells [2]; 21 d incubation with 1 μg/ml, 72 h, control 0 μg/ml 0.547): 0.502
- AVERAGE (mean absorbance) (U373 astroglioma cells [2]; 21 d incubation with 5 μg/ml, 24 h, control 0 μg/ml 0.617): 0.539
- AVERAGE (mean absorbance) (U373 astroglioma cells [2]; 21 d incubation with 5 μg/ml, 72 h, control 0 μg/ml 0.547): 0.478
- AVERAGE (mean absorbance) (U373 astroglioma cells [2]; 28 d incubation with 1 μg/ml, 24 h, control 0 μg/ml 0.567): 0.510
- AVERAGE (mean absorbance) (U373 astroglioma cells [2]; 28 d incubation with 1 μg/ml, 72 h, control 0 μg/ml 0.598): 0.507
- AVERAGE (mean absorbance) (U373 astroglioma cells [2]; 28 d incubation with 5 μg/ml, 24 h, control 0 μg/ml 0.567): 0.461
- AVERAGE (mean absorbance) (U373 astroglioma cells [2]; 28 d incubation with 5 μg/ml, 72 h, control 0 μg/ml 0.598): 0.514
- average decrease in activity (U373 astroglioma cells [2]; long term exposure up to 28 days, 1 and 5 μg/ml): approximately 20%
- CPE score ([3]; 0.5 μg/ml, virus + DMSO control 3): 1 ^5
- CPE score ([3]; 0.5 μg/ml, virus + DMSO control 4): 4
- CPE score ([3]; 1.0 μg/ml, virus + DMSO control 3): 1
- CPE score ([3]; 1.0 μg/ml, virus + DMSO control 4): 3
- CPE score ([3]; 5.0 μg/ml, virus + DMSO control 3): 1
- CPE score ([3]; 5.0 μg/ml, virus + DMSO control 4): 3
- CPE score ([3]; 10 μg/ml, virus + DMSO control 3): 1
- CPE score ([3]; 10 μg/ml, virus + DMSO control 4): 3
- CPE score ([3]; 25 μg/ml, virus + DMSO control 3): 1
- CPE score ([3]; 25 μg/ml, virus + DMSO control 4): 3
- CPE score ([3]; 50 μg/ml, virus + DMSO control 3): 3
- CPE score ([3]; 50 μg/ml, virus + DMSO control 4): 5
- CPE score ([3]; 100 μg/ml, virus + DMSO control 3): 4
- CPE score ([3]; 100 μg/ml, virus + DMSO control 4): 5
- effect on CPE (summary in words) ([3]; comparatively lower concentrations): mild to moderate reduction in CPE
- effect on CPE (summary in words) ([4]; Influenza B infection): mild to moderate reduction in CPE
- CPE score ([4]; 24 hpi, 0.5 μg/ml): 3
- CPE score ([4]; 24 hpi, 1.0 μg/ml): 3
- CPE score ([4]; 24 hpi, 5.0 μg/ml): 2
- CPE score ([4]; 24 hpi, 10 μg/ml): 2
- CPE score ([4]; 24 hpi, 25 μg/ml): 4
- CPE score ([4]; 24 hpi, 50 μg/ml): 4
- CPE score ([4]; 24 hpi, 100 μg/ml): 5
- CPE score ([4]; 48 hpi, 0.5 μg/ml): 3
- CPE score ([4]; 48 hpi, 1.0 μg/ml): 3
- CPE score ([4]; 48 hpi, 5.0 μg/ml): 3
- CPE score ([4]; 48 hpi, 10 μg/ml): 3
- CPE score ([4]; 48 hpi, 25 μg/ml): 4
- CPE score ([4]; 48 hpi, 50 μg/ml): 5
- CPE score ([4]; 48 hpi, 100 μg/ml): 6
- LD50 (NSC34 motor neurons): < 0.25 mg/mL
- viability/proliferation [5]: dose-dependent decreases in viability/proliferation
- Toxicity (MTT), fold changes relative to vehicle controls (MDCK cells; 24 h exposure, 0.5 μg/ml): 1.09 fold
- Toxicity (MTT), fold changes relative to vehicle controls (MDCK cells; 24 h exposure, 1.0 μg/ml): 1.24 fold
- Toxicity (MTT), fold changes relative to vehicle controls (MDCK cells; 24 h exposure, 5.0 μg/ml): 1.18 fold
- Toxicity (MTT), fold changes relative to vehicle controls (MDCK cells; 24 h exposure, 10 μg/ml): 1.15 fold
- Toxicity (MTT), fold changes relative to vehicle controls (MDCK cells; 24 h exposure, 25 μg/ml): 1.06 fold
- Toxicity (MTT), fold changes relative to vehicle controls (MDCK cells; 24 h exposure, 50 μg/ml): 1.08 fold
- Toxicity (MTT), fold changes relative to vehicle controls (MDCK cells; 24 h exposure, 100 μg/ml): 0.98 fold
- Toxicity (MTT), fold changes relative to vehicle controls (MDCK cells; 72 h exposure, 0.5 μg/ml): 1.05 fold
- Toxicity (MTT), fold changes relative to vehicle controls (MDCK cells; 72 h exposure, 1.0 μg/ml): 0.99 fold
- Toxicity (MTT), fold changes relative to vehicle controls (MDCK cells; 72 h exposure, 5.0 μg/ml): 1.15 fold
- Toxicity (MTT), fold changes relative to vehicle controls (MDCK cells; 72 h exposure, 10 μg/ml): 1.01 fold
- Toxicity (MTT), fold changes relative to vehicle controls (MDCK cells; 72 h exposure, 25 μg/ml): 0.96 fold
- Toxicity (MTT), fold changes relative to vehicle controls (MDCK cells; 72 h exposure, 50 μg/ml, decreases exceeding 25% considered toxic): 0.71^3 fold
- Toxicity (MTT), fold changes relative to vehicle controls (MDCK cells; 72 h exposure, 100 μg/ml, decreases exceeding 25% considered toxic): 0.56 fold
- cytotoxicity (summary in words) (MDCK cells; higher concentrations (≧25 μg/ml)): toxicity associated with the compound itself
- overt cell death / reductions in MTT activity (U373 astroglioma cells [6]; acute (24 h) and chronic (72 h) treatment, 0.5-250 μg/ml): Neither overt cell death nor significant reductions in MTT activity
- LD50 (U373 astroglioma cells [6]; [8]): exceeds 0.25 mg/ml
- decrease in MTT activity ([7]; acute treatment (24 h), 0.25 mg/ml): approximately 30%
- change in MTT activity ([7]; acute treatment (24 h), other concentrations evaluated (below 0.25 mg/ml)): No significant change in MTT activity
- LD50 [7, 8]: exceeds 0.25 mg/ml
- decrease in MTT activity ([7]; chronic treatment (72 h), 50 μg/ml): 25%
- decrease in MTT activity ([7]; chronic treatment (72 h), 100 μg/ml): 25%
- decrease in MTT activity ([7]; chronic treatment (72 h), 250 μg/ml): 25%
